Assay results as given in patent US12478671B2, “Sterols as novel immunomodulatory agents and their use as vaccine adjuvants” (Ohio State Innovation Foundation, priority 2017, dated 2025).

Assays:
[1] = system: RAW-Blue NF-kB/AP1 reporter cell line; test: NF-κB and AP-1 activity assay (SEAP reporter, alkaline phosphatase activity); format: cell-based; conditions: 25 μM, 24 h, compared to vehicle alone (FIG. 1)
Protocol: NF-κB and AP-1 Activity Assay. NF-kB and AP-1 activity was analyzed using the RAW-Blue NF-kB/AP1 reporter cell line (InvivoGen, San Diego, CA, USA), which contains a secreted embryonic alkaline phosphatase (SEAP) reporter construct, inducible by NF-κB and AP-1. Cells were cultured in RPMI 1640 medium supplemented with 10% FBS (Atlanta Biologicals, Flowery Branch, GA, USA) and 1% penicillin streptomycin (Life Technologies, Carlsbad, CA, USA), and stimulated with 25 μM PEN or DMSO (vehicle control) for 24 h. Culture supernatants were then collected and alkaline phosphatase activity was determined by incubating with the detection medium QUANTI-Blue (InvivoGen), and measuring at 655 nm using a SpectraMax spectrophotometer (Molecular Devices LLC, Sunnyvale CA, USA) and analyzed using Softmax Pro software (Molecular Devices LLC).

[2] = system: RAW macrophages (RAW 264.7); test: Macrophage activation: surface expression of MHC-II, CD40, CD80, CD86 by flow cytometry; format: cell-based
Protocol: (§1) Macrophage Activation. RAW macrophages (RAW 264.7 (ATCC TIB-71), ATCC, Manassas, VA, USA) were plated at a concentration of 0.5×10^6 cells per well in 24-well plates, and treated with PEN (25 μM or 50 μM) or DMSO (vehicle control) for 24, 48 and 72 h. At the indicated times, cells were harvested for detection of MHC-II, CD40, CD80, CD86 surface expression by flow cytometry. RNA was also extracted from cells to determine gene expression of Tnfα, Il1b, Il6, IL10, Il15, Il18, Nos2, Arg1, and Chil3 by RT-PCR.
Flow Cytometry. Macrophages treated with PEN or the DMSO control were harvested, washed in PBS, blocked with normal mouse serum, and incubated with fluorochrome conjugated antibodies against the cell surface markers CD40, CD80, CD86 and MHC-II (Biolegend). Cells were acquired on a BD FACS Calibur (BD Biosciences) and analysis was performed using FlowJo software (Tree Star Inc, Ashland, OR, USA).

[3] = system: RAW macrophages (RAW 264.7); test: Macrophage gene expression by RT-PCR; format: cell-based
Protocol: as §1
Real Time PCR. Total RNA was extracted from RAW macrophages using TRIzol reagent (Life Technologies). RNA was reverse-transcribed to cDNAs using an iScript reverse transcriptase kit (Bio-Rad, Hercules, CA, USA). Real-time PCR reactions using the IQ SYBR Green mix reagent were performed in a CFX96 RT-PCR cycler (Bio-Rad). Primer sequences for Tnfa, Illb, 116, IL10, 1115, 1118, Nos2, Argl and Chil3 were selected from the Primer Bank database (pga.mgh.harvard.edu/primerbank). Data were normalized to the reference gene β-actin and presented as fold induction over controls.

[4] = system: Bone marrow-derived dendritic cells (BMDCs); test: Cytokine production (ELISA) by bone marrow-derived dendritic cells; format: cell-based, C57BL/6 mice
Protocol: Isolation of Mouse Bone Marrow-derived Dendritic Cells. Bone marrow-derived dendritic cells (BMDCs) were prepared by harvesting bone marrow cells from the femurs and tibias of C57BL/6 mice. Red blood cell lysis was performed in ACK lysis buffer, and subsequent cells were plated in RPMI medium supplemented with 10% FBS, 1% penicillin-streptomycin (Life Technologies) and 20 ng/mL GM-CSF (Peprotech, Rocky Hill, NJ, USA) at 5 million cells/dish for 6 to 8 days. Cells were harvested then stimulated with PEN (25 μM or 50 μM) or DMSO for 24 h, and culture supernatants were collected for detection of IL-12 and IL-10 cytokines by ELISA.
(§2) Cytokine ELISA. Purified anti-mouse antibodies against IFN-γ, IL-4, IL-10, IL-12 (Biolegend, San Diego, CA, USA) and IL-13 (eBiosciences, San Diego, CA, USA) were used to coat plates. Recombinant mouse IFN-γ, IL-4, IL-10, IL-12 and IL-13 (BD Biosciences, San Jose, CA, USA) were used as standards. Biotinylated anti-mouse antibodies for IFN-γ, IL-4, IL-10, IL-12 and IL-13 (Biolegend, San Diego, CA) were used as detection antibodies. AKP-streptavidin (BD Biosciences) and p-nitrophenylphosphate (PNPP, Thermo Fisher Scientific, Waltham, MA, USA) were used for detection. Absorbance was measured at 405 nm using a Spectramax microplate reader and data were analyzed by Softmax Pro software (Molecular Devices LLC, Sunnyvale, CA).

[5] = system: OT-II T cells co-cultured with BMDCs; test: T cell co-culture with OVA-peptide-loaded BMDCs (CFSE proliferation, IFN-γ ELISA); format: cell-based, OT-II transgenic mice
Protocol: T Cell Co-culture Experiments 5×10^4 BMDCs were pulsed with 10 μg/mL OVA323-339 peptide (Anaspec, Fremont, CA, USA) for 2 h, then incubated with PEN (25 μM or 50 μM) or DMSO (vehicle control) for 24 h. CFSE labeled T cells isolated from spleens of OT-II transgenic mice were added to the wells at a 1:4 (BMDC:T cell) ratio and incubated for 72 h. Antigen-specific T cell proliferation was analyzed by flow cytometry of CFSE stained cells. Cell co-culture supernatants were collected for analysis of IFN-γ cytokine production by ELISA.
as §2

[6] = system: OVA-immunized mice; test: Mouse immunization study: serum IgG1 and IgG2a antibody ELISA; format: in vivo, BALB/c mice; conditions: 10 μg and 100 μg with 100 μg OVA s.c., compared to vehicle controls (FIG. 6)
Protocol: (§3) Mouse Immunization Studies. Six- to seven-week-old female BALB/c mice were purchased from Harlan Laboratories (Indianapolis, IN, USA). Mice were randomized into three groups, and immunized subcutaneously with 100 μg OVA (endotoxin free; BioVendor, Ashville, NC, USA) plus vehicle (Group 1), 100 μg OVA plus 10 μg PEN (Group 2), or 100 μg OVA plus 100 μg PEN (group 3, […]). Each group received respective boosting doses of treatment at weeks 2 and 4. Serum was collected from each mouse at every two weeks after initial immunization for detection of IgG1 and IgG2A antibodies by ELISA. Mice were euthanized at week 10 and spleens and lymph nodes were harvested for detection of cytokines IFN-γ, IL-4, IL-10 and IL-13 by ELISA after re-stimulation with 1 mg/mL OVA antigen for 72 h.
Antibody ELISA. Mice were bled at weeks 2, 4, 6, 8 and 10 after immunization and serum was collected from the blood samples. IgG1 and IgG2a antibody titers were determined by ELISA using HRP-conjugated antibodies (Biolegend) and TMB substrate (KPL, Inc., Gaithersburg, MD, USA). Absorbance was measured at 450 nm by Spectramax microplate reader and data were analyzed by Softmax Pro software (Molecular Devices LLC).

[7] = system: OVA-immunized mice; test: Mouse immunization study: cytokines of spleen and lymph node cells after ex vivo OVA re-stimulation; format: in vivo, BALB/c mice
Protocol: as §3, §2

[8] = both concentrations (25 μM, 50 μM), 72 h

For `C=C(CCC=C(C)C)[C@H]1CC[C@H]2[C@@H]3CCC4=CC(=O)CC[C@]4(C)[C@H]3CC[C@]12C` [PEN, pentalinonsterol], the “alkaline phosphatase activity (NF-κB/AP-1 SEAP reporter)” value [1] was “significantly increased”, the “expression of CD40” value ([2]; 25 μM and 50 μM, after 72 h (FIGS. 2A, 2E)) was “significantly enhanced” and the “expression of MHC-II” value ([2]; 25 μM and 50 μM, at 48 h and 72 h (FIGS. 2B, 2F)) was “significantly enhanced”. For the same compound, the “expression of CD80” value ([2]; 50 μM, 48 h) was “increased”, the “expression of CD86” value ([2]; 50 μM, 48 h) was “increased” and the “expression of CD80” value [2, 8] was “increased”. The “expression of CD86” value [2, 8] was “increased”, the “transcript levels of Arg1” value [3] was “increased” and the IL-15 gene transcripts ([3]; 25 μM, after 24 h (FIG. 3E)) was “increased”. For the same compound, the IL-18 gene transcripts ([3]; 25 μM, after 24 h (FIG. 3F)) was “increased”, the Il1b gene expression ([3]; 24 and 48 h, not statistically significant (FIG. 3B)) was “increased trend” and the “mRNA levels of Tnfα” value ([3]; 48 h (FIG. 3A)) was “increases”. The “mRNA levels of Il6” value ([3]; 48 h (FIG. 3C)) was “increases”, the “gene transcript levels of Nos2” value ([3]; after 48 h (FIG. 3D)) was “significantly increased” and the “transcript levels of Chil3” value ([3]; at 24 h and 48 h) was “significantly reduced”. The “transcript levels of IL-10” value ([3]; at 48 h) was “significantly reduced”, the IL-10 production ([4]; 50 μM, 24 h (FIG. 4B)) was “slight increase” and the “production of IL-12” value ([4]; 24 h (FIG. 4A)) was “significantly induces”. For the same compound, the T cell proliferation ([5]; 72 h co-culture, PEN-treated vs DMSO-treated BMDCs (FIG. 4C)) was “higher”, the “production of IFN-γ by T cells” value ([5]; 72 h co-culture, PEN-treated vs DMSO-treated BMDCs (FIG. 4D)) was “significantly increased” and the “T cell responses (proliferation and IFN-γ), 50 μM compared to 25 μM” value ([5]; BMDCs treated with 50 μM vs 25 μM) was “greater”. The IgG1 antibody titers [6] was “significantly increased”, the IgG2a antibody titers [6] was “significantly increased” and the “levels of IL-4” value ([7]; culture supernatants of lymph node and splenic cells (FIGS. 7B, 7F)) was “increased”. The “levels of IL-13” value ([7]; culture supernatants of lymph node and splenic cells (FIGS. 7D, 7H)) was “increased”, the “levels of IL-10” value ([7]; culture supernatants of lymph nodes and spleens, PEN vs vehicle control (FIGS. 7C, 7G)) was “generally comparable” and the “levels of IFN-γ” value ([7]; lymph node cells and splenocytes, OVA re-stimulation (FIGS. 7A, 7E)) was “significantly increased”.
